Test results published in patent publication US4835155A, “Process for protection of brain cells” (Nippon Chemiphar Co., Ltd., priority 1986, dated 1989).
Structures can show the parent of a compound that is named as a salt.

Key:
[1] = Acute toxicity, oral, observed for seven days; settings: in vivo, ddN male mouse about 20 g
[2] = tested on: brain cells (delayed neuronal damage); settings: Kirino et al., Progress in Brain Research, vol. 63: 39-58 (1985); cited from earlier work
[3] = pentobarbital acts nonselectively; cited from earlier work

SMILES	LD50 at 168 h [1] [mg/kg]	Effect of protection of brain cells / suppression of delayed neuronal damage [2]	Action on central nervous system [3]
Oc1ccc(C(O)CN2CCN(C(c3ccccc3)c3ccccc3)CC2)cc1 (stereo not shown) [C, 2(4-diphenylmethylpiperazinyl)-1-(4-hydroxyphenyl)ethanol monohydrochloride]	> 2000		
COc1cc(C(O)CN2CCN(C(c3ccccc3)c3ccccc3)CC2)cc(OC)c1OC (stereo not shown) [B, 2(4-diphenylmethylpiperazinyl)-1-(3,4,5-trimethoxyphenyl)ethanol monohydrochloride]	> 2000		
CCCC(C)C1(CC)C(=O)NC(=O)NC1=O (stereo not shown) [pentobarbital]		markedly suppress the above-mentioned delayed neuronal damage	the action of central nervous system is also strongly subsided
